# Experimental data taken from patent US20220296594A1, “POTENTIATORS OF ANTIMICROBIAL AND/OR ANTIVIRAL AGENTS” (MASSACHUSETTS INSTITUTE OF TECHNOLOGY, priority 2019, published 2022).
# Entries after “also recorded” stand apart in the source; their conditions may differ.
# Columns and labels:
# [1] = test system: Escherichia coli strain K-12 MG1655; experiment: Time-kill experiments (antibiotic lethality with biochemical supplementation); conditions: for ciprofloxacin (CIP) lethality / gentamicin (GENT) lethality / ampicillin (AMP) lethality: time-kill, with vs without the added substance; for ciprofloxacin (CIP) lethality: 16 ng/mL CIP; for gentamicin (GENT) lethality: 48 ng/mL GENT (minimal medium); for ampicillin (AMP) lethality: 4 μg/mL AMP; for antibiotic lethality: supplementation in wildtype cells, tested antibiotics AMP, CIP and GENT
# E. coli cells [2] = conditions: E. coli cells treated with the antibiotic; cited from earlier work
# E. coli cells [3] = experiment: Oxygen consumption rate quantification (Seahorse XFe96 Extracellular Flux Analyzer); type: cell-based, Escherichia coli; conditions: for cellular oxygen consumption rate (OCR) following antibiotic treatment: antibiotic alone, in contrast to control conditions; for cellular OCR under antibiotic treatment: 1 mM adenine or uracil supplementation, AMP, CIP or GENT treatment
# E. coli = experiment: Unstressed growth in MOPS minimal medium; conditions: exogenous supplementation, no antibiotic
# E. coli cells [4] = experiment: Intracellular metabolite quantification by LC-MS/MS after adenine or uracil supplementation; type: cell-based, Escherichia coli
# Procedure: Intracellular metabolites were quantified on an AB SCIEX Qtrap® 5500 mass spectrometer (AB SCIEX; Framingham, Mass.), as previously described (McCloskey et al., 2018), and processed using in house scripts. […] Samples were collected 1 hr after supplementation, and aliquots with biomass equivalents to 10 mL of cell culture at OD600=0.1 were subjected to metabolite extraction using a 40:40:20 mixture of acetonitrile, methanol and LC-MS grade water. Uniformly labeled ^13C-standards were generated by growing E. coli in uniformly labeled Glucose M9 minimal media in aerated shake flasks, as previously described (McCloskey et al., 2014). Calibration mixes of standards were split across several mixes, aliquoted, and lyophilized to dryness. All samples and calibrators were equally spiked with the same internal standards. Samples were quantified using […] mass spectrometry. Calibration curves were run before and after all biological and analytical replicates. Consistency of quantification between calibration curves was checked by running a Quality Control sample composed of all biological replicates. Values reported are derived from the average of the biological triplicates, analyzed in duplicate (n=6).
# Metabolite concentrations were estimated from LC-MS/MS peak heights using previously generated calibration curves. […] Metabolites in blanks with a concentration greater than 80% of that found in the biological samples were similarly excluded. Missing values were imputed by bootstrapping using the R package Amelia II (v. 1.7.4, 1,000 imputations) (Honaker et al., 2011). Remaining missing values were approximated as ½ the lower limit of quantification for the metabolite normalized to the biomass of the sample. Intracellular metabolite concentrations were calculated based on an estimated cell density of 7·10^7 CFU/mL at OD600=0.1 (FIGS. 5A-5C) and an estimated cell volume of 1.3 fL for non-stressed exponential phase E. coli cells (Milo and Phillips, 2016).
# [5] = 1 mM supplementation, 1 hr, MOPS minimal medium
SMILES,ciprofloxacin (CIP) lethality [1],gentamicin (GENT) lethality [1],ampicillin (AMP) lethality [1],cellular oxygen consumption rate (OCR) following antibiotic treatment (E. coli cells [3]),antibiotic lethality [1],also measured
COc1cc(Cc2cnc(N)nc2N)cc(OC)c1OC [trimethoprim],decreases,increases,decreases,,,
CCn1cc(C(=O)O)c(=O)c2cc(F)c(N3CCNCC3)cc21 [norfloxacin],,,,,,"intracellular purine nucleic acid bases (adenine, guanine) (E. coli cells [2]): depleted; intracellular pyrimidine nucleic acid bases (cytosine, thymine, uracil) (E. coli cells [2]): accumulate"
"CNC(C)C1CCC(N)C(OC2C(N)CC(N)C(OC3OCC(C)(O)C(NC)C3O)C2O)O1 (stereo not drawn) [GENT, gentamicin]",,,,increased,,
Sc1ncnc2nc[nH]c12 [6-mercaptopurine],decreased,increased,decreased,,,
"O=C(O)c1cn(C2CC2)c2cc(N3CCNCC3)c(F)cc2c1=O [CIP, ciprofloxacin]",,,,increased,,
Nc1ncnc2nc[nH]c12 [adenine],decreases,decreases,decreases,,decreased,unstressed growth (E. coli): does not significantly alter; NADH/NAD+ ratio (E. coli cells [4]; [5]): unchanged; NADPH/NADP+ ratio (E. coli cells [4]; [5]): modest decrease; adenylate energy charge (E. coli cells [4]; [5]): modest decrease; intracellular fumarate (E. coli cells [4]; [5]): decreased; intracellular succinate (E. coli cells [4]; [5]): increased; intracellular adenine nucleotides (E. coli cells [4]; exogenous adenine addition): accumulate; cellular OCR under antibiotic treatment (E. coli cells [3]): significantly repressed
O=c1cc[nH]c(=O)[nH]1 [uracil],increases,increases,increases,,potentiated; also recorded: potentiating effect,unstressed growth (E. coli): does not significantly alter; cellular OCR under antibiotic treatment (E. coli cells [3]): enhanced
O=c1ccn([C@@H]2O[C@H](CO)[C@@H](O)[C@H]2O)c(=O)[nH]1 [uridine],,,,,potentiating effect,
Nc1cc[nH]c(=O)n1 [cytosine],,,,,potentiated; also recorded: potentiating effect,
"CC1(C)S[C@@H]2[C@H](NC(=O)[C@H](N)c3ccccc3)C(=O)N2[C@H]1C(=O)O [AMP, ampicillin]",,,,increased,,"intracellular purine nucleic acid bases (adenine, guanine) (E. coli cells [2]): depleted; intracellular pyrimidine nucleic acid bases (cytosine, thymine, uracil) (E. coli cells [2]): accumulate"
